According to patent US20230085307A1, “PYRIDAZINONE COMPOUND AND HERBICIDE” (NISSAN CHEMICAL CORPORATION, priority 2019, published 2023):

Tests used:
[1] = system: barnyard grass; test: Test Example 5: herbicidal effect by foliage application, plastic box (Table 20, symbol H); format: in vivo, barnyard grass (Echinochloa crus-galli); conditions: foliage application, AAH 320 g/ha, evaluated three weeks after application
Method in brief: (§1)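 Foliar spray test: emulsion formulation diluted in water to a set application rate, sprayed onto 14-day-old plants raised in diluvial soil at 25° C to 30° C under glass. Both herbicidal effect and crop effect rated visually three weeks later.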

[2] = system: barnyard grass; test: Test Example 3: herbicidal effect by foliage application, Wagner pot (Table 18, symbol H); format: in vivo, barnyard grass (Echinochloa crus-galli); conditions: amount of applied herbicide 320 g/ha
Method in brief: (§2)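 Plants were sown in alluvial soil held under 0.1–0.5 cm standing water and grown 14 days in a greenhouse at 25–30 °C. An emulsifiable formulation, water-diluted to the set dose, was then sprayed onto the foliage, and effects were scored three weeks later using previously defined criteria.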

[3] = system: lambsquarters; test: Test Example 4: herbicidal effect by soil treatment (Table 19, symbol O); format: in vivo, lambsquarters (Chenopodium album); conditions: amount of applied herbicide 320 g/ha
Method in brief: (§3)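 Herbicidal effect was rated 3 weeks after treatment, using the scoring criteria of an earlier test. The compound, formulated as an emulsion and diluted in water to a set herbicide amount, had been sprayed uniformly on soil over freshly sown seeds. Growth took place in a greenhouse at 25° C. to 30° C.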

[4] = system: blackgrass; test: Test Example 4: herbicidal effect by soil treatment (Table 19, symbol J); format: in vivo, blackgrass (Alopecurus myosuroides); conditions: amount of applied herbicide 320 g/ha
Method in brief: as §3

[5] = system: late watergrass; test: Test Example 1: herbicidal activity, application before weed generation under submerged conditions (Table 16, symbol A); format: in vivo, late watergrass (Echinochloa oryzicola); conditions: 320 g/ha applied herbicide
Method in brief: (§4)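 Emulsion formulation, water-diluted to set dose, was put onto the flooded surface (4 cm depth, alluvial soil) the same day weeds were sown and 2.5-leaf rice transplanted. After 3 weeks at 25-30 °C under glass, each species was rated 0 (≤5% kill) to 5 (≥90% kill).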

[6] = system: lambsquarters; test: Test Example 5: herbicidal effect by foliage application, plastic box (Table 20, symbol O); format: in vivo, lambsquarters (Chenopodium album); conditions: foliage application, AAH 320 g/ha, evaluated three weeks after application
Method in brief: as §1

[7] = system: persian speedwell; test: Test Example 4: herbicidal effect by soil treatment (Table 19, symbol R); format: in vivo, Persian speedwell (Veronica persica); conditions: amount of applied herbicide 320 g/ha
Method in brief: as §3

[8] = system: windgrass; test: Test Example 4: herbicidal effect by soil treatment (Table 19, symbol L); format: in vivo, windgrass (Apera spica-venti); conditions: amount of applied herbicide 320 g/ha
Method in brief: as §3

[9] = system: persian speedwell; test: Test Example 5: herbicidal effect by foliage application, plastic box (Table 20, symbol R); format: in vivo, Persian speedwell (Veronica persica); conditions: foliage application, AAH 320 g/ha, evaluated three weeks after application
Method in brief: as §1

[10] = system: barnyard grass; test: Test Example 4: herbicidal effect by soil treatment (Table 19, symbol H); format: in vivo, barnyard grass (Echinochloa crus-galli); conditions: amount of applied herbicide 320 g/ha
Method in brief: as §3

[11] = system: chickweed; test: Test Example 4: herbicidal effect by soil treatment (Table 19, symbol P); format: in vivo, common chickweed (Stellaria media); conditions: amount of applied herbicide 320 g/ha
Method in brief: as §3

[12] = system: chickweed; test: Test Example 5: herbicidal effect by foliage application, plastic box (Table 20, symbol P); format: in vivo, common chickweed (Stellaria media); conditions: foliage application, AAH 320 g/ha, evaluated three weeks after application
Method in brief: as §1

[13] = system: redroot pigweed; test: Test Example 5: herbicidal effect by foliage application, plastic box (Table 20, symbol N); format: in vivo, redroot pigweed (Amaranthus retroflexus); conditions: foliage application, AAH 320 g/ha, evaluated three weeks after application
Method in brief: as §1

[14] = system: green foxtail; test: Test Example 4: herbicidal effect by soil treatment (Table 19, symbol G); format: in vivo, green foxtail (Setaria viridis); conditions: amount of applied herbicide 320 g/ha
Method in brief: as §3

[15] = system: Chinese sprangletop; test: Test Example 3: herbicidal effect by foliage application, Wagner pot (Table 18, symbol D); format: in vivo, chinese sprangletop (Leptochloa chinensis); conditions: amount of applied herbicide 320 g/ha
Method in brief: as §2

[16] = system: velvetleaf; test: Test Example 5: herbicidal effect by foliage application, plastic box (Table 20, symbol M); format: in vivo, velvetleaf (Abutilon theophrasti); conditions: foliage application, AAH 320 g/ha, evaluated three weeks after application
Method in brief: as §1

[17] = system: velvetleaf; test: Test Example 4: herbicidal effect by soil treatment (Table 19, symbol M); format: in vivo, velvetleaf (Abutilon theophrasti); conditions: amount of applied herbicide 320 g/ha
Method in brief: as §3

[18] = system: blackgrass; test: Test Example 5: herbicidal effect by foliage application, plastic box (Table 20, symbol J); format: in vivo, blackgrass (Alopecurus myosuroides); conditions: foliage application, AAH 320 g/ha, evaluated three weeks after application
Method in brief: as §1

[19] = system: redroot pigweed; test: Test Example 4: herbicidal effect by soil treatment (Table 19, symbol N); format: in vivo, redroot pigweed (Amaranthus retroflexus); conditions: amount of applied herbicide 320 g/ha
Method in brief: as §3

[20] = system: southern crabgrass; test: Test Example 4: herbicidal effect by soil treatment (Table 19, symbol F); format: in vivo, southern crabgrass (Digitaria ciliaris); conditions: amount of applied herbicide 320 g/ha
Method in brief: as §3

[21] = system: Italian ryegrass; test: Test Example 4: herbicidal effect by soil treatment (Table 19, symbol K); format: in vivo, Italian ryegrass (Lolium multiflorum); conditions: amount of applied herbicide 320 g/ha
Method in brief: as §3

[22] = system: southern crabgrass; test: Test Example 5: herbicidal effect by foliage application, plastic box (Table 20, symbol F); format: in vivo, southern crabgrass (Digitaria ciliaris); conditions: foliage application, AAH 320 g/ha, evaluated three weeks after application
Method in brief: as §1

[23] = system: wild oat; test: Test Example 4: herbicidal effect by soil treatment (Table 19, symbol I); format: in vivo, wild oat (Avena fatua); conditions: amount of applied herbicide 320 g/ha
Method in brief: as §3

[24] = system: Japanese bulrush; test: Test Example 1: herbicidal activity, application before weed generation under submerged conditions (Table 16, symbol B); format: in vivo, Japanese bulrush (Schoenoplectus juncoides); conditions: 320 g/ha applied herbicide
Method in brief: as §4

[25] = system: green foxtail; test: Test Example 5: herbicidal effect by foliage application, plastic box (Table 20, symbol G); format: in vivo, green foxtail (Setaria viridis); conditions: foliage application, AAH 320 g/ha, evaluated three weeks after application
Method in brief: as §1

[26] = system: oval-leafed pondweed; test: Test Example 1: herbicidal activity, application before weed generation under submerged conditions (Table 16, symbol C); format: in vivo, oval-leafed pondweed (Monochoria vaginalis); conditions: 320 g/ha applied herbicide
Method in brief: as §4

[27] = system: Italian ryegrass; test: Test Example 5: herbicidal effect by foliage application, plastic box (Table 20, symbol K); format: in vivo, Italian ryegrass (Lolium multiflorum); conditions: foliage application, AAH 320 g/ha, evaluated three weeks after application
Method in brief: as §1

[28] = system: rice flat sedge; test: Test Example 3: herbicidal effect by foliage application, Wagner pot (Table 18, symbol E); format: in vivo, rice flat sedge (Cyperus iria); conditions: amount of applied herbicide 320 g/ha
Method in brief: as §2

[29] = system: wild oat; test: Test Example 5: herbicidal effect by foliage application, plastic box (Table 20, symbol I); format: in vivo, wild oat (Avena fatua); conditions: foliage application, AAH 320 g/ha, evaluated three weeks after application
Method in brief: as §1

[30] = system: windgrass; test: Test Example 5: herbicidal effect by foliage application, plastic box (Table 20, symbol L); format: in vivo, windgrass (Apera spica-venti); conditions: foliage application, AAH 320 g/ha, evaluated three weeks after application
Method in brief: as §1

**Q.** With `CC(=O)COc1cccc(-c2sc3ccc(F)cc3c2-c2c(O)c(C)nn(C)c2=O)c1` [2-275] as the compound, how does the “H: barnyard grass, herbicidal effect (criteria 0-5)” value [1] read?
**A.** 3 (Herbicidal rate of 40% or more and less than 70%)

**Q.** What about the “herbicidal effect on H: barnyard grass” value [2] of the same compound?
**A.** 3 (Herbicidal rate of 40% or more and less than 70%)

**Q.** And the “herbicidal effect on O: lambsquarters” value [3]?
**A.** 2 (Herbicidal rate of 20% or more and less than 40%)

**Q.** And the “herbicidal effect on J: blackgrass” value [4]?
**A.** 0 (Herbicidal rate of 5% or less (almost no effect))

**Q.** And the “Herbicidal effect on A: late watergrass (grade 0-5)” value [5]?
**A.** 3 (Herbicidal rate of 40% or more and less than 70%)

**Q.** What about the “O: lambsquarters, herbicidal effect (criteria 0-5)” value [6] of the same compound?
**A.** 2 (Herbicidal rate of 20% or more and less than 40%)

**Q.** What about the “herbicidal effect on R: persian speedwell” value [7] of the same compound?
**A.** 3 (Herbicidal rate of 40% or more and less than 70%)

**Q.** What about the “herbicidal effect on L: windgrass” value [8] of the same compound?
**A.** 0 (Herbicidal rate of 5% or less (almost no effect))

**Q.** What about the “R: persian speedwell, herbicidal effect (criteria 0-5)” value [9] of the same compound?
**A.** 5 (Herbicidal rate of 90% or more (almost completely withered))

**Q.** What about the “herbicidal effect on H: barnyard grass” value [10] of the same compound?
**A.** 3 (Herbicidal rate of 40% or more and less than 70%)

**Q.** What about the “herbicidal effect on P: chickweed” value [11] of the same compound?
**A.** 0 (Herbicidal rate of 5% or less (almost no effect))

**Q.** What about the “P: chickweed, herbicidal effect (criteria 0-5)” value [12] of the same compound?
**A.** 5 (Herbicidal rate of 90% or more (almost completely withered))

**Q.** What about the “N: redroot pigweed, herbicidal effect (criteria 0-5)” value [13] of the same compound?
**A.** 4 (Herbicidal rate of 70% or more and less than 90%)

**Q.** And the “herbicidal effect on G: green foxtail” value [14]?
**A.** 4 (Herbicidal rate of 70% or more and less than 90%)

**Q.** And the “herbicidal effect on D: Chinese sprangletop” value [15]?
**A.** 0 (Herbicidal rate of 5% or less (almost no effect))

**Q.** And the “M: velvetleaf, herbicidal effect (criteria 0-5)” value [16]?
**A.** 3 (Herbicidal rate of 40% or more and less than 70%)

**Q.** What about the “herbicidal effect on M: velvetleaf” value [17] of the same compound?
**A.** 1 (Herbicidal rate of 5% or more and less than 20%)

**Q.** What about the “J: blackgrass, herbicidal effect (criteria 0-5)” value [18] of the same compound?
**A.** 0 (Herbicidal rate of 5% or less (almost no effect))

**Q.** And the “herbicidal effect on N: redroot pigweed” value [19]?
**A.** 4 (Herbicidal rate of 70% or more and less than 90%)

**Q.** And the “herbicidal effect on F: southern crabgrass” value [20]?
**A.** 5 (Herbicidal rate of 90% or more (almost completely withered))

**Q.** What about the “herbicidal effect on K: Italian ryegrass” value [21] of the same compound?
**A.** 0 (Herbicidal rate of 5% or less (almost no effect))

**Q.** And the “F: southern crabgrass, herbicidal effect (criteria 0-5)” value [22]?
**A.** 5 (Herbicidal rate of 90% or more (almost completely withered))

**Q.** What about the “herbicidal effect on I: wild oat” value [23] of the same compound?
**A.** 0 (Herbicidal rate of 5% or less (almost no effect))

**Q.** And the “Herbicidal effect on B: Japanese bulrush (grade 0-5)” value [24]?
**A.** 3 (Herbicidal rate of 40% or more and less than 70%)

**Q.** What about the “G: green foxtail, herbicidal effect (criteria 0-5)” value [25] of the same compound?
**A.** 4 (Herbicidal rate of 70% or more and less than 90%)

**Q.** And the “Herbicidal effect on C: oval-leafed pondweed (grade 0-5)” value [26]?
**A.** 3 (Herbicidal rate of 40% or more and less than 70%)

**Q.** And the “K: Italian ryegrass, herbicidal effect (criteria 0-5)” value [27]?
**A.** 0 (Herbicidal rate of 5% or less (almost no effect))

**Q.** And the “herbicidal effect on E: rice flat sedge” value [28]?
**A.** 0 (Herbicidal rate of 5% or less (almost no effect))

**Q.** And the “I: wild oat, herbicidal effect (criteria 0-5)” value [29]?
**A.** 0 (Herbicidal rate of 5% or less (almost no effect))

**Q.** And the “L: windgrass, herbicidal effect (criteria 0-5)” value [30]?
**A.** 0 (Herbicidal rate of 5% or less (almost no effect))
